The record followed here is ChEMBL document CHEMBL3627683, “Effective Two-Photon Excited Photodynamic Therapy of Xenograft Tumors Sensitized by Water-Soluble Bis(arylidene)cycloalkanone Photosensitizers” (J Med Chem, 2015).

pIC50: −log10 of the molar value. Values after ≈ are worked out from the molar mass of the structure shown. Active and inactive are the calls of the source. The rule behind the calls is not given here. Bounds are passed on as bounds.

Data set [1] can be described thus: Solubility of the compound in PBS. Format: physicochemical.
A short description of data set [2]: Octanol-water partition coefficient, log P of the compound. It counts as physicochemical.
A short description of data set [3]: Drug uptake in mitochondria of human HepG2 cells at 5 uM for 4 hrs by MitoLite NIR staining-based CLSM analysis. It counts as ADME. Particulars: hepg2, 4 h.
The nature of data set [4]: Drug uptake in mitochondria of human HepG2 cells by MitoLite NIR staining-based CLSM analysis. It counts as ADME. Particulars: TDE = time-dependent effect.
A short description of data set [5]: Dark toxicity in human HepG2 cells assessed as cell viability measured after 24 hrs by CCK-8 assay. Particulars: read-out: TC50. It counts as cell-based. For orientation: Formazan colour is commonly taken as a measure of viable cells.
In data set [6] the test system is HepG2. In words: Photocytotoxicity against human HepG2 cells assessed as cell viability preincubated for 4 hrs in dark condition followed by irradiation at 532 nm for 20 mins measured 24 hrs post incubation in dark condition by CCK-8 assay. Conditions: HepG2, light or radiation study. Format: functional, cell-based.
Data set [7] in a line: Therapeutic ratio of TC50 for human HepG2 cells to IC50 for human HepG2 cells under irradiation at […]. It counts as ADME, cell-based. Conditions: read-out: TI.
In data set [8] the test system is HepG2. As to the kind of experiment: Photocytotoxicity against human HepG2 cells assessed as cell viability preincubated for 4 hrs in dark condition followed by irradiation at 800 nm for 10 mins measured 24 hrs post incubation in dark condition by CCK-8 assay. Particulars: HepG2, light or radiation study. Format: functional, cell-based.
Data set [9] is described as follows: Therapeutic ratio of TC50 for human HepG2 cells to IC50 for human HepG2 cells under irradiation at 800 nm. Format: ADME, cell-based. Particulars: read-out: TI.
In data set [10] the test system is HepG2. As to the kind of experiment: Induction of ROS generation in human HepG2 cells at 5 uM preincubated for 4 hrs followed by DCFH-DA addition for 0.5 hrs and irradiation at 800 nm for 10 mins measured by CLSM. Format: functional, cell-based.
The subject of data set [11] is HepG2. As to the kind of experiment: Induction of ROS generation in human HepG2 cells at 5 uM preincubated for 4 hrs followed by DCFH-DA addition for 0.5 hrs in absence of irradiation measured by CSLM. It counts as functional, cell-based.
The next data set has as its system Mus musculus. As to the kind of experiment: Induction of blood vessels blockage in BALB/c mouse dorsal skinfold window chamber model at 17.5 mg/kg, iv irradiated at 800 nm for 5 mins monitored by stereomicroscopic analysis. Format: functional, organism-based. Particulars: Blood vessel.
Data set [12] has as its system CCRF S-180. As to the kind of experiment: Drug uptake in mouse S180 cells implanted in BALB/c mouse at 17.5 mg/kg, iv measured within 3 hrs by CSLM analysis. Format: ADME, organism-based. Particulars: in vivo.
The subject of data set [13] is CCRF S-180. In words: Drug uptake in mouse S180 cells implanted in BALB/c mouse at 17.5 mg/kg, iv measured at 3 to 24 hrs by CSLM analysis. It counts as ADME, organism-based. Particulars: in vivo.
Data set [14] has as its system CCRF S-180. In words: Antitumor activity against mouse S180 cells implanted in BALB/c mouse assessed as tumor growth inhibition at 17.5 mg/kg, iv administered 3 hrs followed by irradiation at 800 nm for 25 mins measured every other day until 12 days relative to control. Particulars: CCRF S-180, light or radiation study, read-out: TGI. Format: functional.
Data set [15] has as its system CCRF S-180. In words: Antitumor activity against mouse S180 cells implanted in BALB/c mouse assessed as tumor growth inhibition at 17.5 mg/kg, iv administered 3 hrs followed by irradiation at 800 nm for 25 mins measured every other day until 12 days […]. It counts as functional, organism-based.
The test system of data set [16] is CCRF S-180. As to the kind of experiment: Antitumor activity against mouse S180 cells implanted in BALB/c mouse assessed as prolongation of survival at 17.5 mg/kg, iv administered 3 hrs followed by irradiation at 800 nm for 25 mins measured by Kaplan-Meier analysis. It counts as functional, organism-based.
Data set [17] concerns CCRF S-180. In words: Antitumor activity against mouse S180 cells implanted in BALB/c mouse assessed as prolongation of survival at 17.5 mg/kg, iv administered 3 hrs in the absence of irradiation measured by Kaplan-Meier analysis. Format: functional, organism-based.

Take `CCN(CC)c1ccc(C=C2CC(=Cc3ccc(N(CCOCCOCCOCCOC)CCOCCOCCOCCOC)cc3)C2=O)cc1`: in [1], the solubility (usually the concentration that dissolves in the medium under given conditions) worked out at 1.8 mg/mL (≈ 2.52 mM). Further, the logP (in general, the decadic logarithm of the partition coefficient of the neutral form, usually between octanol and water) in data set [2] stood at 3.2. Besides, the Drug uptake entry is recorded as “Active” in data set [3] and “tde” in data set [4]. For the same compound, the CC50 at 24 h in data set [5] came to 24 µM. In addition, the pIC50 (commonly the IC50 on a negative log10 scale, so that one unit is a factor of ten) in the data set with HepG2 [6] is 5.90; in the data set on HepG2 [8], 5.73. The results for the selectivity ratio in [7] and in [9] were 18.9 and 12.8, respectively.
For `CCN(CC)c1ccc(C=C2CC(=Cc3ccc(N(CCOCCOCCOCCOCCOC)CCOCCOCCOCCOCCOC)cc3)C2=O)cc1`, the solubility in data set [1] is above 100 mg/mL. For the same compound, the logP in data set [2] is 3.04. Also, the Drug uptake entry in data set [3] is listed as “Active”; in [4], “tde”; in the data set with CCRF S-180 [12], “Active”; with CCRF S-180 [13] it was “Not Active”. Moreover, the CC50 at 24 h in data set [5] amounted to 35.9 µM. Also, the figures for the pIC50 in the data set on HepG2 [6] and in the data set with HepG2 [8] were 5.85 and 5.41, respectively. Further, the selectivity ratio came to 25.5 in data set [7] and 9.13 in [9]. In addition, the result in the data set on HepG2 [10], with Mus musculus and in the data set on CCRF S-180 [16] was Active. Also, the result in the data set on HepG2 [11] and with CCRF S-180 [17] was inactive. Also, the inhibition in vivo at 17.5 mg/kg with CCRF S-180 [14] is 43%. Moreover, in the data set with CCRF S-180 [15], the TGI entry was “inactive”.
Regarding `COCCOCCOCCOCCN(C)c1ccc(C=C2CC(=Cc3ccc(N(C)CCOCCOCCOCCOC)cc3)C2=O)cc1`, in [1], the concentration in solution (solubility) came to 0.3 mg/mL (≈ 0.438 mM). Moreover, the lipophilicity (logP) in data set [2] came out at 2.86. In addition, the Drug uptake result is reported as “Active” in data set [3] and “tde” in data set [4]. Moreover, in data set [5], the CC50 at 24 h is 34 µM. The pIC50 in the data set on HepG2 [6] is 5.65; with HepG2 [8] it was 4.88. Also, the values for the selectivity ratio in data set [7] and in [9] were 15 and 2.58, respectively.
In [1], `COCCOCCOCCOCCOCCN(C)c1ccc(C=C2CC(=Cc3ccc(N(C)CCOCCOCCOCCOCCOC)cc3)C2=O)cc1` came in with a solubility above 100 mg/mL. In [2], this compound yielded a logP of 2.54. The Drug uptake entry in data set [3] is given as “Active”; in [4], “tde”. Further, the CC50 at 24 h in data set [5] amounted to 41.9 µM. Further, the values for the pIC50 with HepG2 [6] and in the data set on HepG2 [8] were 5.51 and 4.77, respectively. The values for the selectivity ratio in data set [7] and in data set [9] were 13.6 and 2.49, respectively.
`CCN(CC)c1ccc(/C=C2\CC/C(=C\c3ccc(N(CCOCCOCCOCCOCCOC)CCOCCOCCOCCOCCOC)cc3)C2=O)cc1` yielded a solubility in [1] above 100 mg/mL. The compound also returned a logP in data set [2] of 3.2. In addition, the Drug uptake result in [3] is reported as “Active”; in [4] it was “tde”. Also, the CC50 at 24 h in data set [5] is 20.9 µM. Also, the negative logarithm of the IC50 (pIC50) in the data set on HepG2 [6] is 5.79; with HepG2 [8], 5.33. The values for the selectivity ratio in data set [7] and in [9] were 13 and 4.48, respectively.
`COCCOCCOCCOCCOCCN(C)c1ccc(/C=C2\CC/C(=C\c3ccc(N(C)CCOCCOCCOCCOCCOC)cc3)C2=O)cc1` came in with a solubility in data set [1] above 100 mg/mL. The logP in data set [2] is 2.73. The results for the Drug uptake entry in data set [3] and in data set [4] were “Active” and “tde”, respectively. Besides, the CC50 at 24 h in data set [5] is 41.5 µM. Besides, the results for the negative-log IC50 (pIC50) in the data set on HepG2 [6] and in the data set on HepG2 [8] were 5.59 and 4.83, respectively. In addition, the selectivity ratio is 16 in data set [7] and 2.79 in [9].
